“Also recorded” adds a separate entry of the source.
Legend:
rG1 = test: Thermal stability of PBX1 rG1 with G4-specific ligands; type: binding
PBX1 promoter region = test: BG4 chromatin immunoprecipitation (ChIP) followed by qRT-PCR in A375 cells; type: cell-based, human
Procedure: (§1) FIGS. 2A-2G are features formed by dG1 and rG1 in vitro and in cells. In (FIG. 2A), Left: CD spectra of WT and Mut dG1, and Right: CD spectra of WT and Mut rG1. CD is circular dichroism. In (FIG. 2B), Left: gel mobility assay of WT and Mut dG1, and Right: gel mobility assay of WT and Mut rG1. In (FIG. 2C), under specified conditions, fluorescence-on assay of NMM in absence of presence of dG1 or rG1, and their G/A mutant. In (FIG. 2D), the occupancy of BG4 in the PBX1 promoter region is measured in A375 cells by BG4 chromatin immunoprecipitation (ChIP), followed by qRT-PCR. In (FIG. 2E), RNA immunoprecipitation (RIP) detection is performed to show the association between BG4 and the PBX1 transcript in A375 cells, followed by qRT-PCR. In (FIG. 2F), the occupancy of BG4 in the PBX1 promoter region is measured, by the BG4 chip, in A375 cells treated with or without PDS and TMPyP4, followed by qRT-PCR. […] SEM represents the standard error of mean. *P< 0.05, **P< 0.01***P< 0.001.
In this embodiment, several methods are further employed to verify the formation of dG1 and rG1. First, circular dichroism (CD) is used to examine the molar ellipticity of dG1 and rG1 sequences (33 nt) and mutants thereof, and the mutants are designed to eliminate G4 formation. […] Both dG1 and rG1 are found to enhance the fluorescence of N N (FIG. 2C). […]

PBX1 transcript = test: BG4 RNA immunoprecipitation (RIP) followed by qRT-PCR in A375 cells; type: cell-based, human
Procedure: as §1
In this embodiment, several methods are further employed to verify the formation of dG1 and rG1. First, circular dichroism (CD) is used to examine the molar ellipticity of dG1 and rG1 sequences (33 nt) and mutants thereof, and the mutants are designed to eliminate G4 formation. […] N-methyl mesoporphyrin IX (NMN) is the well-known fluorescent G4-specific ligand that can be used for studies of G4 formation in vitro. Both dG1 and rG1 are found to enhance the fluorescence of N N (FIG. 2C). In addition, in this embodiment, chromatin immunoprecipitation (ChIP) and RNA immunoprecipitation (RIP) detection are performed in A375 cells using the well-known G4-specific antibody BG4. […] In summary, dG1 and rG1 can fold stable G4 structures in vitro and in cells. […] Therefore, the ability of these G4-specific ligands to interact with PBX1 G4s is investigated next.
Control:mG*mT*mC*mC*mA*mC*mA*mA*mA*mC*mA*mC*mA*mA*mC*mT*mC* mC*mT*mG*). […] This example also establishes short-term cultures of patient-derived melanoma xenograft (PDX)-derived tumor cells (PDCs) (FIG. 5D). […]

PBX1 = PBX1 mRNA and protein levels by qRT-PCR and western blot in B16-F10 cells; type: cell-based, mouse; conditions: for mRNA level of PBX1: qRT-PCR; for protein level of PBX1: western blot, normalized to GAPDH
Procedure: RNA extraction and quantitative RT-PCR detection: total RNA is extracted from cultured cells by using TRIzol (Invitrogen, USA), then is converted into cDNA by SuperScript III First-Strand Synthesis SuperMix (Invitrogen, USA). qRT-PCR detection is performed by using SYBR Green®Mix (Invitrogen, USA) in ABI 7500 (Invitrogen, USA). A relative expression quantity of RNA is calculated by using a comparative CT method.
Immunoblotting: for protein analysis of a whole-cell lysate, cells are lysed with RIPA (CWBIO, Beijing, China) buffer solution. For tumors, liquid nitrogen is first used to pulverize tissues. Then, the lysate is generated on ice with the RIPA (CWBIO, Beijing, China) buffer solution for 20 minutes, and then centrifuged at 4° C., 13000 rpm for 15 minutes. Protein-containing supernatant is transferred to the fresh microcentrifuge tube, and stored at −20° C. (short-term storage) for subsequent use. The protein is quantified by using the BIO-RAD DC protein assay. The total proteins are electrophoresed on SDS-polyacrylamide gels. Then, the proteins are transferred to polyvinylidene difluoride (PVDF) membrane. After incubation with the primary antibody overnight on the shaker at 4° C., the membrane is washed 6 times (5 minutes each time) with TBS-T (Invitrogen, USA). Then, blots are incubated with horseradish peroxidase (IRP)-conjugated secondary antibodies for 60 minutes at RT on the plate shaker. The membrane is cleaned by TBS-T (6×5 minutes). Detection on immunoreactive bands is performed by using SuperSignalmWest Pico chemiluminescence substrate kit (Thermo Fisher Scientific, USA) and Western blotting detection system (BioRad, USA). GAPDH is used as the loading control for western blotting. The intensity levels of the bands are normalized to GAPDH.

A375 cells [1] = test: Colony forming assay, A375; type: cell-based, human
Procedure: Colony forming assay: for the colony forming assay, A375 and B16-F10 cells are seeded on 6-well plates with the density of 500-1000 cells. After two weeks, staining is performed by using 1% crystal violet at room temperature, rinsing is performed with PBS and tap water, and the number of colonies is counted.

A375 cells [2] = test: Cell scratch assay (migration), A375; type: cell-based, human; conditions: PDS (2 μM), TMPyP4 (5 μM), 24 h
Procedure: (§2) Cell scratch assay: the cells are seeded in 12-well plate and grown for 24 hours to 80% confluency. The bare region is created by the tip across the diameter of the dish. After being treated with PDS (2 μM) and TMPyP4 (5 μM) for 24 h, the cells are washed with PBS and photographed under the microscope (Leica, Germany) to evaluate cell migration. Six micrographs are taken for each person.

B16-F10 cells = test: Cell scratch assay (migration), B16-F10; type: cell-based, mouse; conditions: PDS (2 μM), TMPyP4 (5 μM), 24 h
Procedure: as §2

A375 melanoma cells = test: In vivo tumor growth experiment, A375 xenograft in nude mice
Procedure: In vivo tumor growth experiment: to evaluate the effect of PBX1 on growth of in vivo tumors, before inoculation, male nude mice of 6 weeks (BALB/C background) are randomly divided into designated groups (5 per group). 1×10^6 A375 melanoma cells are injected subcutaneously into the upper flank of the back of each mouse. After injection, the mice are administered with PDS drug for treatment for 21 days (once every two days), and after the mice are sacrificed, the tumor weight is measured.
Bioluminescent tumor cell tracking: in vivo whole-animal imaging, anesthetized mice are injected intraperitoneally with 3 mg of d-luciferin (MCE, USA). Luminescence data is collected on an IVIS system (Perkin Elmer, USA). For live tissue imaging, tissues are perfused with PBS, harvested, and incubated in PBS with 1 μg/ml-1d-luciferin. Data analysis is performed using an IVIS Image software package.

Compound	thermal stability of rG1 (rG1)	pull-down of the PBX1 promoter by BG4 (PBX1 promoter region)	PBX1 transcript pulled down by BG4 (PBX1 transcript)	mRNA level of PBX1 (PBX1)	protein level of PBX1 (PBX1)	colony formation (A375 cells [1])	migration (A375 cells [2])	migration (B16-F10 cells)	growth of xenograft tumors (A375 melanoma cells; A375 subcutaneous, nude mice, treatment 21 days once every two days)	expression of PBX1 in xenograft tumors (A375 melanoma cells; qRT-PCR and IHC staining)
C[n+]1ccc(-c2c3nc(c(-c4cc[n+](C)cc4)c4ccc([nH]4)c(-c4cc[n+](C)cc4)c4ccc([nH]4)c(-c4cc[n+](C)cc4)c4nc2C=C4)C=C3)cc1 [TMPyP4]	remarkably enhance	enhance	enhance	inhibit; also recorded: remarkably reduces	inhibit; also recorded: remarkably reduces	inhibits	inhibit	inhibit	–	–
NCCOc1cc(C(=O)Nc2cc(OCCN)c3ccccc3n2)nc(C(=O)Nc2cc(OCCN)c3ccccc3n2)c1 [PDS, Pyridostatin]	remarkably enhance	enhance	enhance	inhibit; also recorded: remarkably reduces	inhibit; also recorded: remarkably reduces	inhibits	inhibit	inhibit	remarkably inhibits	downregulating
